For this assay, the system named is HIV-1 (IIIB) in MT-4 cells. As to the kind of experiment: microbe, parasite or virus in culture. Format: cell-based. Particulars: Human immunodeficiency virus 1, IIIB, MT4, MT-4 cells, HIV-1; read-out: MT4 EC50. The protocol: Compounds were serially diluted (1:3) in DMSO on 384-well polypropylene plates and further diluted 200-fold into complete RPMI media (10% FBS, 1% P/S) using the Biotek Micro Flow and Agilent ECHO acoustic dispenser. Each plate contained up to 8 test compounds, with negative (No Drug Control) and 5 uM AZT positive controls. MT-4 cells were pre-infected with 10 uL of either RPMI (mock-infected) or a fresh 1:250 dilution of an HIV-1 (IIIB) concentrated virus stock. Infected and uninfected MT-4 cells were further diluted in complete RPMI media and added to each plate using a Micro Flow dispenser. After 5 days incubation in a humidified and temperature controlled incubator (37° C.), Cell Titer Glo (Promega) was added to the assay plates to quantify the amount of luciferase.

As to `CC(C)(C)C[C@]1(c2ccc(-c3cnn(C(F)F)c3)cc2)NC(=N)N([C@H](COC(=O)NC2COC2)c2ccc(Cl)c(-c3ncn[nH]3)c2)C1=O` [Compound 94], the EC50 was 341 nM.

In the case of `CC(C)(C)C[C@]1(c2ccc(-c3ccc(F)cn3)cc2)NC(=N)N([C@H](COC(=O)NC2(C(F)(F)F)CC2)c2ccc(Cl)c(-n3ncnc3C(F)F)c2)C1=O` [Compound 274], the EC50 came to 11.1 nM.

Take `CC(C)(C)C[C@]1(c2ccc(-c3cnn(C(F)F)c3)cc2)NC(=N)N([C@H](COC(=O)N2CC(F)(F)C2)c2ccc(Cl)c(-n3cccn3)c2)C1=O` [Compound 261]: the EC50 was 29 nM.

Consider `CN(C)C(=O)OC[C@H](c1ccc(Cl)c(-c2nccs2)c1)N1C(=N)N[C@@](c2cc(F)cc(F)c2)(C2CC2)C1=O` [Compound 5], for which the EC50 worked out at 5710 nM.

For `CC(C)(C)C[C@]1(c2ccc3nc(C4CC4)ccc3c2)NC(=N)N([C@H](COC(=O)NC2(C(F)(F)F)CC2)c2ccc(Cl)c(-n3ncnc3C(F)F)c2)C1=O` [Compound 353], the EC50 came to 8.59 nM.

Regarding `CC(C)(C)C[C@]1(c2ccc(-c3cnsc3)cc2)NC(=N)N([C@H](COC(=O)NC2(C(F)(F)F)CC2)c2ccc(Cl)c(-c3ncnn3C(F)F)c2)C1=O` [Compound 119], the EC50 worked out at 10.3 nM.

With `CC(C)C[C@]1(c2ccc(-c3cnn(C(F)F)c3)cc2)NC(=N)N([C@H](COC(=O)NC2(C(F)(F)F)CC2)c2ccc(Cl)c(-n3cncn3)c2)C1=O` [Compound 250], the EC50 stood at 29.8 nM.

Regarding `CC(C)(F)C[C@]1(c2ccc(-c3ncccn3)cc2F)NC(=N)N([C@H](COC(=O)NC(C)(C)C(F)F)c2ccc(Cl)c(-c3ncnn3C(F)F)c2)C1=O` [Compound 132], the EC50 was 48 nM.

Take `CC(C)(C)C[C@]1(c2ccc(-c3ncc(F)cn3)cc2)NC(=N)N([C@H](COC(=O)NC2(C(F)(F)F)CC2)c2ccc(Cl)c(-n3ncnc3C(F)F)c2)C1=O` [Compound 275]: the EC50 came to 12.8 nM.

As to `CC(C)(C)C[C@]1(c2ccc(-c3cnn(C4CC4)c3)cc2)NC(=N)N([C@H](COC(=O)NC(C)(C)C(F)F)c2ccc(Cl)c(-c3ncn[nH]3)c2)C1=O` [Compound 79], the EC50 was determined as 64.5 nM.

Consider `CC(C)(C)C[C@]1(c2ccc(-c3ccc(S(C)(=O)=O)cc3)c(F)c2)NC(=N)N([C@H](COC(=O)NC2(C(F)(F)F)CC2)c2ccc(Cl)c(-n3ncnc3C(F)F)c2)C1=O` [Compound 313], for which the EC50 was determined as 19.5 nM.

On to `CC(C)(C)C[C@]1(c2ccc(-c3cnn(S(C)(=O)=O)c3)c(F)c2)NC(=N)N([C@H](COC(=O)NC2CC2(F)F)c2ccc(Cl)c(-n3ncnc3C(F)F)c2)C1=O` (stereo partly drawn) [Compound 293], for which the EC50 is 10.5 nM.

For `CC(C)(C)C[C@]1(c2ccc(-c3cnc4ccccn34)cc2)NC(=N)N([C@H](COC(=O)NC2(C(F)(F)F)CC2)c2ccc(Cl)c(-c3ncnn3C(F)F)c2)C1=O` [Compound 121], the EC50 is 21 nM.

For the molecule `CC(C)(C)C[C@]1(c2ccc(-c3ccccn3)cc2F)NC(=N)N([C@H](COC(=O)NC2(C(F)(F)F)CC2)c2ccc(Cl)c(-c3ncn[nH]3)c2)C1=O` [Compound 116], the EC50 worked out at 42.6 nM.

On to `CC(C)(C)C[C@]1(c2ccc(-c3cnccn3)cc2)NC(=N)N([C@H](COC(=O)NC2CC2)c2ccc(Cl)c(-c3ncn[nH]3)c2)C1=O` [Compound 28], for which the EC50 turned out to be 91.7 nM.

For `CC(C)(C)C[C@]1(c2ccc(-c3cnn(C(F)F)c3)cc2)NC(=N)N([C@H](COC(=O)NC2(C)CC2)c2ccc(Cl)c(-n3cc(C4CC4)cn3)c2)C1=O` [Compound 264], the EC50 turned out to be 228 nM.

For the molecule `CC(C)(C)C[C@]1(c2ccc(-c3cnn(C(F)F)c3)cc2)NC(=N)N([C@H](COC(=O)N2CCC2)c2ccc(Cl)c(-c3ncn[nH]3)c2)C1=O` [Compound 86], the concentration giving a half-maximal response (EC50) is 35.4 nM.

Turning to `C[C@H](NC(=O)OC[C@H](c1ccc(Cl)c(-c2ncnn2C(F)F)c1)N1C(=N)N[C@](CC(C)(C)C)(c2ccc(-c3cnn(C4CC4)n3)cc2)C1=O)C(F)(F)F` [Compound 147], the EC50 was determined as 7.93 nM.

Regarding `CC(C)(C)C[C@]1(c2ccc(-c3cnn(C(F)F)c3)cc2)NC(=N)N([C@H](COC(=O)NC2CC2)c2ccc(Cl)c(-c3ncn[nH]3)c2)C1=O` [Compound 19], the EC50 is 49.9 nM.

As for `[H]/N=C1\N[C@](CC(C)(C)C)(c2ccc(-c3cnn(C(F)F)c3)cc2)C(=O)N1[C@H](COC(N)=O)c1ccc(Cl)c(-c2c[nH]cn2)c1` [Compound 29], the EC50 came out at 228 nM.

`CC(C)(C)C[C@]1(c2ccc(-c3ncccn3)cc2)NC(=N)N([C@H](COC(=O)NC(C)(C)C(F)F)c2ccc(Cl)c(-c3ncnn3C(F)F)c2)C1=O` [Compound 125]: the EC50 amounted to 12 nM.

For the molecule `CC(C)(C)C[C@]1(c2ccc(-c3cnn(C(F)F)c3)cc2)NC(=N)N([C@H](COC(=O)N[C@H]2C[C@H]2F)c2ccc(Cl)c(-n3ncnc3C(F)F)c2)C1=O` [Compound 288], the EC50 was found to be 6.07 nM.

With `C[C@@H](NC(=O)OC[C@H](c1ccc(Cl)c(-n2ncnc2C(F)F)c1)N1C(=N)N[C@](CC(C)(C)C)(c2ccc(-c3cnn(C(F)F)c3)cc2)C1=O)C(F)F` [Compound 343], the EC50 stood at 17 nM.

`Cn1nnnc1-c1ccc([C@@]2(CC(C)(C)C)NC(=N)N([C@H](COC(=O)NC3(C(F)(F)F)CC3)c3ccc(Cl)c(-n4ncnc4C(F)F)c3)C2=O)cc1` [Compound 358]: the EC50 worked out at 76.2 nM.

Regarding `CC(C)(F)C[C@]1(c2ccc(-c3ncccn3)cc2)NC(=N)N([C@H](COC(=O)NC2(C(F)(F)F)CC2)c2ccc(Cl)c(-n3ncnc3C(F)F)c2)C1=O` [Compound 329], the EC50 was determined as 23 nM.

For the molecule `CC(C)(C)C[C@]1(c2ccc(-c3cnn(C(F)F)c3)cc2)NC(=N)N([C@H](COC(=O)N2CC(F)(F)C2)c2ccc(Cl)c(-n3cncn3)c2)C1=O` [Compound 240], the EC50 amounted to 5.06 nM.

As to `CC(C)(F)C[C@]1(c2ccc(-c3ncccn3)cc2)NC(=N)N([C@H](COC(=O)NC(C)(C)C(F)F)c2ccc(Cl)c(-c3ncnn3C(F)F)c2)C1=O` [Compound 127], the EC50 is 27.5 nM.

Consider `CC(C)(C)C[C@]1(c2ccc(-c3cnn(S(C)(=O)=O)c3)cc2)NC(=N)N([C@H](COC(=O)NC2(C(F)(F)F)CC2)c2ccc(Cl)c(-n3ncnc3C(F)F)c2)C1=O` [Compound 292], for which the EC50 stood at 14.2 nM.

For `CC(C)(C)C[C@]1(c2ccc(-c3cnccn3)cc2F)NC(=N)N([C@H](COC(=O)NC2CC2)c2ccc(Cl)c(-c3ncn[nH]3)c2)C1=O` [Compound 21], the EC50 amounted to 63.8 nM.

For `CC(C)(F)C[C@]1(c2ccc(-c3cnn(C(F)F)c3)cc2)NC(=N)N([C@H](COC(=O)N2CC(F)(F)C2)c2ccc(Cl)c(-c3ncn[nH]3)c2)C1=O` [Compound 101], the EC50 amounted to 65.9 nM.

Turning to `[H]/N=C1\N[C@](CC(C)(C)C)(c2ccc(-c3cnn(C(F)F)c3)cc2)C(=O)N1[C@H](COC(=O)NC1CC1)c1ccc(Cl)c(-c2ncc[nH]2)c1` [Compound 16], the EC50 came out at 11.4 nM.

On to `Cn1nnc(-c2ccc([C@@]3(CC(C)(C)C)NC(=N)N([C@H](COC(=O)NC4(C(F)(F)F)CC4)c4ccc(Cl)c(-n5ncnc5C(F)F)c4)C3=O)cc2)n1` [Compound 357], for which the EC50 turned out to be 10.6 nM.

With `CC(C)(C)C[C@]1(c2ccc(-c3ccsn3)cc2)NC(=N)N([C@H](COC(=O)NC2(C(F)(F)F)CC2)c2cccc(-n3ncnc3C(F)F)c2)C1=O` [Compound 322], the EC50 is 39 nM.

As usually defined, the EC50 is the midpoint of the concentration-response curve.

For the origin of these results see patent US10774053B2, “HIV protease inhibitors” (Gilead Sciences, Inc., priority 2017, dated 2020).
